Measured values as given in US20230365592A1 (Agios Pharmaceuticals, Inc., priority 2022, published 2023).

These compounds were tested against T1, human PAH with the R408W mutation (Homo sapiens, UniProt P00439, R408W) (assay: Cell Based Phenylalanine Flux Assay). Settings: A375 cells expressing human PAH R408W; 24 hrs compound incubation; 13C-Tyrosine by LC-MS; average where tested multiple times; read-out: AC50.
T1 construct: expressed in transfected cells
T1 sequence (P00439 1-452 R408W): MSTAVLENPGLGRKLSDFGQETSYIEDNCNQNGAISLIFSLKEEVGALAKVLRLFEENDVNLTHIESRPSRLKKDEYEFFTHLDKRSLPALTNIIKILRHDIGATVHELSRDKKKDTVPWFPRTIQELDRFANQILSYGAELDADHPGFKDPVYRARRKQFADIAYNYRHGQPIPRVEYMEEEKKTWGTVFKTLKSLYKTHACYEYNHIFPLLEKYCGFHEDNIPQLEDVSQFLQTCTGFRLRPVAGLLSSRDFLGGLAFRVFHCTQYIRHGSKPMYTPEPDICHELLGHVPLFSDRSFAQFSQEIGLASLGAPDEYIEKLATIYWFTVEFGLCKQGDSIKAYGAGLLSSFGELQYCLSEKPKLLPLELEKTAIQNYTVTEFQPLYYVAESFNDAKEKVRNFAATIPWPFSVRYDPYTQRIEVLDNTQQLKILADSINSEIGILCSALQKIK
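Also: after compound treatment, cells received sepiapterin plus isotope-labelled Phenylalanine for 4 hours, then labelled Tyrosine in the medium was quantified, 10-point 2-fold dilution series run in duplicate.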

AC50 | Compound
500 to 1000 nM | CC(C)c1cccn2nc([C@@H]3c4nc[nH]c4CCN3C(=O)c3nnc(-c4ncccn4)o3)cc12 [Example 1981, (S)-(4-(4-isopropylpyrazolo[1,5-a]pyridin-2-yl)-1,4,6,7-tetrahydro-5H-imidazo[4,5-c]pyridin-5-yl)(5-(pyrimidin-2-yl)-1,3,4-oxadiazol-2-yl)methanone]
< 500 nM | CC(C)c1cccn2nc([C@@H]3c4nc[nH]c4CCN3C(=O)c3nnc(-c4ccn(C(F)(F)F)n4)o3)cc12 [Example 1984, (S)-(4-(4-isopropylpyrazolo[1,5-a]pyridin-2-yl)-1,4,6,7-tetrahydro-5H-imidazo[4,5-c]pyridin-5-yl)(5-(1-(trifluoromethyl)-1H-pyrazol-3-yl)-1,3,4-oxadiazol-2-yl)methanone]
> 5000 nM | CC(C)c1cccn2nc([C@H]3c4nc[nH]c4CCN3C(=O)c3nnc(-c4ccn(C(F)(F)F)n4)o3)cc12 [Example 1985, (R)-(4-(4-isopropylpyrazolo[1,5-a]pyridin-2-yl)-1,4,6,7-tetrahydro-5H-imidazo[4,5-c]pyridin-5-yl)(5-(1-(trifluoromethyl)-1H-pyrazol-3-yl)-1,3,4-oxadiazol-2-yl)methanone]
< 500 nM | O=C(c1ocnc1C1CC1)N1CCc2[nH]cnc2[C@H]1c1cc2c(F)cccn2n1 [Example 1986, (S)-(4-cyclopropyloxazol-5-yl)(4-(4-fluoropyrazolo[1,5-a]pyridin-2-yl)-1,4,6,7-tetrahydro-5H-imidazo[4,5-c]pyridin-5-yl)methanone]
1000 to 5000 nM | O=C(c1ocnc1C1CC1)N1CCc2[nH]cnc2[C@@H]1c1cc2c(F)cccn2n1 [Example 1987, (R)-(4-cyclopropyloxazol-5-yl)(4-(4-fluoropyrazolo[1,5-a]pyridin-2-yl)-1,4,6,7-tetrahydro-5H-imidazo[4,5-c]pyridin-5-yl)methanone]
500 to 1000 nM | Cc1cccn2nc([C@@H]3c4nc[nH]c4CCN3C(=O)c3ncco3)cc12 [Example 1989, (S)-(4-(4-methylpyrazolo[1,5-a]pyridin-2-yl)-1,4,6,7-tetrahydro-5H-imidazo[4,5-c]pyridin-5-yl)(oxazol-2-yl)methanone]
500 to 1000 nM | O=C(c1nnc(C2CC2)s1)N1CCc2[nH]cnc2[C@H]1c1cc2ccccn2n1 [Example 1991, (S)-(5-cyclopropyl-1,3,4-thiadiazol-2-yl)(4-(pyrazolo[1,5-a]pyridin-2-yl)-1,4,6,7-tetrahydro-5H-imidazo[4,5-c]pyridin-5-yl)methanone]
> 5000 nM | O=C(c1nnc(C2CC2)s1)N1CCc2[nH]cnc2[C@@H]1c1cc2c(F)cccn2n1 [Example 1992, (R)-(5-cyclopropyl-1,3,4-thiadiazol-2-yl)(4-(4-fluoropyrazolo[1,5-a]pyridin-2-yl)-1,4,6,7-tetrahydro-5H-imidazo[4,5-c]pyridin-5-yl)methanone]
< 500 nM | O=C(c1nnc(C2CC2)s1)N1CCc2[nH]cnc2[C@H]1c1cc2c(F)cccn2n1 [Example 1993, (S)-(5-cyclopropyl-1,3,4-thiadiazol-2-yl)(4-(4-fluoropyrazolo[1,5-a]pyridin-2-yl)-1,4,6,7-tetrahydro-5H-imidazo[4,5-c]pyridin-5-yl)methanone]
> 5000 nM | Cn1ccc(-c2nnc(C(=O)N3CCc4[nH]cnc4[C@@H]3c3cc4c(F)cccn4n3)s2)n1 [Example 1994, (R)-(4-(4-fluoropyrazolo[1,5-a]pyridin-2-yl)-1,4,6,7-tetrahydro-5H-imidazo[4,5-c]pyridin-5-yl)(5-(1-methyl-1H-pyrazol-3-yl)-1,3,4-thiadiazol-2-yl)methanone]
< 500 nM | Cn1ccc(-c2nnc(C(=O)N3CCc4[nH]cnc4[C@H]3c3cc4c(F)cccn4n3)s2)n1 [Example 1995, (S)-(4-(4-fluoropyrazolo[1,5-a]pyridin-2-yl)-1,4,6,7-tetrahydro-5H-imidazo[4,5-c]pyridin-5-yl)(5-(1-methyl-1H-pyrazol-3-yl)-1,3,4-thiadiazol-2-yl)methanone]
500 to 1000 nM | Cc1cccn2nc([C@@H]3c4nc[nH]c4CCN3C(=O)c3nnc(C4CC4)s3)cc12 [Example 1997, (S)-(5-cyclopropyl-1,3,4-thiadiazol-2-yl)(4-(4-methylpyrazolo[1,5-a]pyridin-2-yl)-1,4,6,7-tetrahydro-5H-imidazo[4,5-c]pyridin-5-yl)methanone]
< 500 nM | Cc1cccn2nc([C@@H]3c4nc[nH]c4CCN3C(=O)c3nnc(-c4ccn(C)n4)s3)cc12 [Example 1998, (S)-(5-(1-methyl-1H-pyrazol-3-yl)-1,3,4-thiadiazol-2-yl)(4-(4-methylpyrazolo[1,5-a]pyridin-2-yl)-1,4,6,7-tetrahydro-5H-imidazo[4,5-c]pyridin-5-yl)methanone]
> 5000 nM | Cc1cccn2nc([C@H]3c4nc[nH]c4CCN3C(=O)c3nnc(-c4ccn(C)n4)s3)cc12 [Example 1999, (R)-(5-(1-methyl-1H-pyrazol-3-yl)-1,3,4-thiadiazol-2-yl)(4-(4-methylpyrazolo[1,5-a]pyridin-2-yl)-1,4,6,7-tetrahydro-5H-imidazo[4,5-c]pyridin-5-yl)methanone]
1000 to 5000 nM | O=C(c1nc2ccccc2s1)N1CCc2[nH]cnc2[C@H]1c1cc2ccccn2n1 [Example 2000, (S)-benzo[d]thiazol-2-yl(4-(pyrazolo[1,5-a]pyridin-2-yl)-1,4,6,7-tetrahydro-5H-imidazo[4,5-c]pyridin-5-yl)methanone]
> 5000 nM | O=C(c1nc2ccccc2s1)N1CCc2[nH]cnc2[C@@H]1c1cc2ccccn2n1 [Example 2001, (R)-benzo[d]thiazol-2-yl(4-(pyrazolo[1,5-a]pyridin-2-yl)-1,4,6,7-tetrahydro-5H-imidazo[4,5-c]pyridin-5-yl)methanone]
500 to 1000 nM | O=C(c1nc2ccccc2s1)N1CCc2[nH]cnc2[C@H]1c1cc2c(F)cccn2n1 [Example 2002, (S)-benzo[d]thiazol-2-yl(4-(4-fluoropyrazolo[1,5-a]pyridin-2-yl)-1,4,6,7-tetrahydro-5H-imidazo[4,5-c]pyridin-5-yl)methanone]
> 5000 nM | O=C(c1nc2ccccc2s1)N1CCc2[nH]cnc2[C@@H]1c1cc2c(F)cccn2n1 [Example 2003, (R)-benzo[d]thiazol-2-yl(4-(4-fluoropyrazolo[1,5-a]pyridin-2-yl)-1,4,6,7-tetrahydro-5H-imidazo[4,5-c]pyridin-5-yl)methanone]
500 to 1000 nM | Cn1nccc1-c1nnc(C(=O)N2CCc3[nH]cnc3[C@H]2c2cc3ccccn3n2)o1 [Example 2004, (S)-(5-(1-methyl-1H-pyrazol-5-yl)-1,3,4-oxadiazol-2-yl)(4-(pyrazolo[1,5-a]pyridin-2-yl)-1,4,6,7-tetrahydro-5H-imidazo[4,5-c]pyridin-5-yl)methanone]
> 5000 nM | Cn1nccc1-c1nnc(C(=O)N2CCc3[nH]cnc3[C@@H]2c2cc3ccccn3n2)o1 [Example 2005, (R)-(5-(1-methyl-1H-pyrazol-5-yl)-1,3,4-oxadiazol-2-yl)(4-(pyrazolo[1,5-a]pyridin-2-yl)-1,4,6,7-tetrahydro-5H-imidazo[4,5-c]pyridin-5-yl)methanone]
< 500 nM | Cc1cc(-c2nnc(C(=O)N3CCc4[nH]cnc4[C@H]3c3cc4c(C(C)C)cccn4n3)o2)nn1C [Example 2007, (S)-(5-(1,5-dimethyl-1H-pyrazol-3-yl)-1,3,4-oxadiazol-2-yl)(4-(4-isopropylpyrazolo[1,5-a]pyridin-2-yl)-1,4,6,7-tetrahydro-5H-imidazo[4,5-c]pyridin-5-yl)methanone]
< 500 nM | Fc1ccc(-c2nnc(N3CCc4[nH]cnc4[C@H]3c3cc4c(Cl)cccn4n3)o2)cc1 [Example 2009, (S)-2-(4-(4-chloropyrazolo[1,5-a]pyridin-2-yl)-1,4,6,7-tetrahydro-5H-imidazo[4,5-c]pyridin-5-yl)-5-(4-fluorophenyl)-1,3,4-oxadiazole]
< 500 nM | Cc1cccc2cc([C@@H]3c4nc[nH]c4CCN3c3nnc(-c4ccc(F)cc4)o3)nn12 [Example 2010, (S)-2-(4-fluorophenyl)-5-(4-(7-methylpyrazolo[1,5-a]pyridin-2-yl)-1,4,6,7-tetrahydro-5H-imidazo[4,5-c]pyridin-5-yl)-1,3,4-oxadiazole]
> 5000 nM | Cc1cccc2cc([C@H]3c4nc[nH]c4CCN3c3nnc(-c4ccc(F)cc4)o3)nn12 [Example 2011, (R)-2-(4-fluorophenyl)-5-(4-(7-methylpyrazolo[1,5-a]pyridin-2-yl)-1,4,6,7-tetrahydro-5H-imidazo[4,5-c]pyridin-5-yl)-1,3,4-oxadiazole]
< 500 nM | FC(F)(F)c1ccc(N2CCc3[nH]cnc3[C@H]2c2cc3c(C(F)(F)F)cccn3n2)nc1 [Example 2013, (S)-4-(4-(trifluoromethyl)pyrazolo[1,5-a]pyridin-2-yl)-5-(5-(trifluoromethyl)pyridin-2-yl)-4,5,6,7-tetrahydro-1H-imidazo[4,5-c]pyridine]
< 500 nM | O=C(c1ocnc1C1CC1)N1CCc2[nH]cnc2[C@H]1c1cc2c(C(F)(F)F)cccn2n1 [Example 2014, (S)-(4-cyclopropyloxazol-5-yl)(4-(4-(trifluoromethyl)pyrazolo[1,5-a]pyridin-2-yl)-1,4,6,7-tetrahydro-5H-imidazo[4,5-c]pyridin-5-yl)methanone]
< 500 nM | Cn1ccc(-c2nnc(C(=O)N3CCc4[nH]cnc4[C@H]3c3cc4ccccn4n3)s2)n1 [Example 2016, (S)-(5-(1-methyl-1H-pyrazol-3-yl)-1,3,4-thiadiazol-2-yl)(4-(pyrazolo[1,5-a]pyridin-2-yl)-1,4,6,7-tetrahydro-5H-imidazo[4,5-c]pyridin-5-yl)methanone]
